The supplement of paper PMC4858399
Where a name gives a salt, the structure may show the parent alone.

Key:
Conditions in all cases: exposure time 48 h
[1] = tested on: Caenorhabditis elegans N2; test: mean nematode size ln(EXT) after 48 h, plate-adjusted (DMSO control set to 6) (ln(EXT), control-adjusted); higher = larger nematodes / less growth inhibition
How it was run: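 C. elegans N2 larvae, synchronised at L1, grew for 48 h at 20°C in K-medium with killed OP50, 1% DMSO and 0.5–200 µM chemical. Mean size per well was derived from natural-logged Biosort extinction after a growth model removed debris. Adjustment across plates involved subtracting the vehicle control mean and adding 6.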

[2] = tested on: Caenorhabditis elegans N2; test: lowest effective concentration for larval growth inhibition (size below effect threshold); higher = less potent
How it was run: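 C. elegans N2 L1 larvae (50 per 96-well) were grown 48 h at 20°C in K-medium with killed bacteria, 1% DMSO and 0.5, 1, 5, 10, 50, 100 or 200 µM chemical. The Biosort measured per-worm extinction as size, and these were log-transformed into well means. The lowest effective concentration is the first dose where the plate-adjusted mean size drops under the 5.665 threshold and stays under it at higher doses.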

[3] = tested on: Caenorhabditis elegans N2; test: AC50 for larval growth inhibition (Hill fit); higher = less potent
How it was run: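 Worms were synchronised C. elegans N2 L1 larvae, 50 per well of a 96-well plate, kept 48 h at 20°C in K-medium with killed OP50, 1% DMSO and 0.5–200 µM chemical. Size was taken as COPAS Biosort extinction, log-transformed and averaged per well, using only wells with at least 10 worms. AC50 was estimated by a constrained Hill fit with weighted genetic-algorithm regression; values outside the range are censored.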

SMILES	mean nematode size ln(EXT) (ln) ([1]; 0.5 µM)	mean nematode size ln(EXT) (ln) ([1]; 1 µM)	mean nematode size ln(EXT) (ln) ([1]; 5 µM)	mean nematode size ln(EXT) (ln) ([1]; 10 µM)	mean nematode size ln(EXT) (ln) ([1]; 50 µM)	mean nematode size ln(EXT) (ln) ([1]; 100 µM)	mean nematode size ln(EXT) (ln) ([1]; 200 µM)	lowest effective concentration [2] [µM]	AC50 for larval growth inhibition [3] [µM]
COc1cccc(C(=O)NN(C(=O)c2cc(C)cc(C)c2)C(C)(C)C)c1C [Methoxyfenozide]	6.16	6.1	6.05	5.9	6	6.01	4.43	200	195
CNC(=O)Oc1cccc2c1OC(C)(C)O2 [Bendiocarb]	5.79	5.85	5.8	5.79	5.81	5.76	5.25	200	> 200
ClC1=C(Cl)C2(Cl)C3C(Cl)C=CC3C1(Cl)C2(Cl)Cl (stereo not drawn) [Heptachlor]	5.7	5.98	5.24	4.13	4.03	3.97	3.44	5	6.11
CCCCSP(=O)(SCCCC)SCCCC [Tribufos]	5.81	5.73	5.58	3.53	3.25	3.33	4.2	5	5.32
Nc1ccc2ccccc2c1 [2-Naphthylamine]	6	5.76	5.94	5.72	5.71	5.89	5.51	200	> 200
Nc1c(Cl)c(F)nc(OCC(=O)O)c1Cl [Fluroxypyr]	5.6	5.62	5.73	5.61	5.75	5.78	5.64	200	> 200
C=CCC1=C(C)[C@@H](OC(=O)[C@@H]2[C@@H](C=C(C)C)C2(C)C)CC1=O [S-Bioallethrin]	5.65	5.78	5.76	5.76	5.48	5.62	5.39	50	> 200
Clc1nc(Cl)nc(Nc2ccccc2Cl)n1 [Anilazine]	6.11	6.01	6.13	6.11	5.99	5.78	5	200	> 200
CCCCCCCCCCCC[N+](C)(C)C [Dodecyl trimethyl ammonium chloride]	5.76	6.02	5.88	5.9	5.76	5.65	4.53	100	199
CCCCOC(=O)c1ccccc1 [Butyl benzoate]	6	5.94	5.85	5.83	6	5.76	5.53	200	100
Clc1ccc(Cl)c(Cl)c1 [1,2,4-Trichlorobenzene]	5.82	5.79	5.69	5.76	5.66	5.84	4.27	200	186
CC1=C(/C=C/C(C)=C/C=C/C(C)=C/C(=O)O)C(C)(C)CCC1 [Retinoic acid]	5.96	5.78	5.8	5.58	4.47	4.33	4.41	10	16.6
c1ccc2c(c1)oc1ccccc12 [Dibenzofuran]	5.88	5.9	5.93	5.87	5.61	5.1	3.65	50	126
CC(C)(C)C(O)C(Oc1ccc(Cl)cc1)n1cncn1 (stereo not drawn) [Triadimenol]	5.84	5.88	5.9	5.93	5.79	5.95	5.59	200	> 200
CC(=O)[O][Hg][c]1ccccc1 [Phenylmercuric acetate]	5.43	5.07	4.25	3.93	4.09	4.09	3.02	≤ 0.5	1.02
COC(=O)N(OC)c1ccccc1COc1ccn(-c2ccc(Cl)cc2)n1 [Pyraclostrobin]	6	5.89	5.83	5.89	5.21	4.93	4.43	50	97.6
COC(=O)c1c(C(F)F)nc(C(F)(F)F)c(C2=NCCS2)c1CC(C)C [Thiazopyr]	6.05	5.89	6	5.98	4.8	4.4	3.61	50	73.2
c1cc2c3c(cccc3c1)CC2 [Acenaphthene]	6.14	5.74	6.03	6.08	5.6	5.77	5.37	200	> 200
CC(C)=CC1C(C(=O)OCN2C(=O)C3=C(CCCC3)C2=O)C1(C)C (stereo not drawn) [Tetramethrin]	5.94	5.96	6.03	6.01	5.76	4.97	4.57	100	78.6
CC(=O)c1ccc2c(c1)[C@H](NC(=O)c1ccc(F)cc1)[C@@H](O)C(C)(C)O2 [Carabersat]	5.79	5.88	5.9	5.89	5.99	5.93	5.65	200	127
ClC(Cl)(Cl)c1ccccc1 [Benzotrichloride]	5.84	5.87	5.73	5.82	5.78	5.75	4.93	200	> 200
N#CC(CCc1ccc(Cl)cc1)(Cn1cncn1)c1ccccc1 (stereo not drawn) [Fenbuconazole]	6.18	6.1	6.07	5.65	5.13	5.27	4.39	10	177
O=C(Nc1ccccc1)c1ccccc1I [Benodanil]	5.99	5.98	5.62	5.66	4.16	4.19	3.37	5	39.3
COc1nc(NC(C)C)nc(NC(C)C)n1 [Prometon]	5.72	5.83	5.84	5.75	5.87	5.61	5.53	100	> 200

SMILES	mean nematode size ln(EXT) (ln) ([1]; 0.5 µM)	mean nematode size ln(EXT) (ln) ([1]; 1 µM)	mean nematode size ln(EXT) (ln) ([1]; 5 µM)	mean nematode size ln(EXT) (ln) ([1]; 10 µM)	mean nematode size ln(EXT) (ln) ([1]; 50 µM)	mean nematode size ln(EXT) (ln) ([1]; 100 µM)	mean nematode size ln(EXT) (ln) ([1]; 200 µM)	lowest effective concentration [2] [µM]	AC50 for larval growth inhibition [3] [µM]
O=Cc1ccccc1C=O [1,2-Benzenedicarboxaldehyde]	5.83	5.92	5.82	5.93	5.24	4.04	3.73	50	62
FC(F)C(F)(F)OCC(Cn1cncn1)c1ccc(Cl)cc1Cl (stereo not drawn) [Tetraconazole]	5.81	5.97	5.98	5.65	4.91	4.36	4.07	10	48.5
N#Cc1c[nH]cc1-c1cccc2c1OC(F)(F)O2 [Fludioxonil]	6.15	6.03	6.08	6.01	6.06	5.27	4.42	100	101
CCOP(=S)(OCC)Oc1cc(C)nc(C(C)C)n1 [Diazinon]	5.98	5.94	5.84	5.86	5.33	4.12	3.6	50	70.9
CCCCC(C#N)(Cn1cncn1)c1ccc(Cl)cc1 (stereo not drawn) [Myclobutanil]	5.83	5.77	5.8	5.86	5.68	5.55	4.8	100	> 200
O=C(O)c1ccccc1-n1cc(C(=O)O)c(=O)c2cc(Nc3c(F)cc(F)cc3Cl)c(Cl)cc21	5.87	5.89	5.95	5.9	5.94	5.85	5.63	200	> 200
CCC/C(=N\OCC)C1=C(O)CC(CC(C)SCC)CC1=O (stereo not drawn) [Sethoxydim]	6.01	6.16	6.06	6	5.76	5.97	3.35	200	149
CN(C)NC(=O)CCC(=O)O [Daminozide]	6.43	6.07	6.34	6.17	6	6.01	5.44	200	> 200
O=C(N[C@H](c1ccccc1)[C@@H]1CN2CCC1CC2)c1c(Cl)ccc(C(F)(F)F)c1Cl	5.84	5.83	5.78	5.64	5.61	5.09	4.34	10	171
FC(F)(F)C(F)(F)C(F)(F)C(F)(F)C(F)(F)C(F)(F)CCI [1H,1H,2H,2H-Perfluorooctyl iodide]	5.99	5.98	5.95	5.96	5.94	5.86	4.39	200	190
CN(C)CCOC(c1ccccc1)c1ccccc1 [Diphenhydramine hydrochloride]	5.87	5.9	5.91	5.91	5.78	5.78	5.39	200	> 200
CO/C=C(/C(=O)OC)c1ccccc1COc1cccc(C(F)(F)F)n1 [Picoxystrobin]	5.95	5.83	5.92	5.89	4.97	4.26	4.61	50	48.6
Nc1c(Cl)cc([N+](=O)[O-])cc1Cl [Dichloran]	6.01	5.9	5.93	5.73	4.94	4.92	4.96	50	14.4
O=[N+]([O-])/N=C1\NCCN1Cc1ccc(Cl)nc1 [Imidacloprid]	5.78	6.02	6.07	6.08	5.96	5.54	4.86	100	111
CCCSP(=O)(OCC)SCCC [Ethoprop]	5.83	5.78	5.68	5.55	4.81	4.35	4.19	10	76.3
O=C(OCCCCCOC(=O)c1ccccc1)c1ccccc1 [1,5-Pentanediol,1,5-dibenzoate]	5.88	5.89	5.84	5.85	5.86	5.98	5.48	200	> 200
CCCCc1oc2ccccc2c1C(=O)c1cc(I)c(OCCN(CC)CC)c(I)c1 [Amiodarone HCl]	5.9	5.96	5.82	5.72	4.41	3.85	3.8	50	31.9
OCCO [Ethylene glycol]	5.79	5.77	5.77	5.78	5.72	5.63	5.65	100	> 200
CCCN(CCC)c1c([N+](=O)[O-])cc(S(N)(=O)=O)cc1[N+](=O)[O-] [Oryzalin]	5.9	5.91	5.84	5.72	5.27	4.95	4.56	50	> 200
Cl[C@H]1[C@H](Cl)[C@@H](Cl)[C@@H](Cl)[C@H](Cl)[C@H]1Cl [Lindane]	5.77	5.98	5.79	5.94	5.42	5.2	4.35	50	175
c1ccc(/N=N/c2ccccc2)cc1 [Azobenzene]	5.73	5.67	5.67	5.61	5.21	4.48	3.5	10	91.6
CCOC1Oc2ccc(OS(C)(=O)=O)cc2C1(C)C (stereo not drawn) [Ethofumesate]	6.01	6.03	6.14	6.03	6.14	6.11	5.44	200	198
O=C(O)COc1nc(Cl)c(Cl)cc1Cl [Triclopyr]	6.07	6.1	6.13	6.08	5.61	5.48	4.06	50	156
